We go through one molecule from patent US20260374739A1, “SMALL MOLECULAR WEIGHT CHEMICAL COMPOUND TO ANTAGONIZE EPH-EPHRIN TETRAMERIZATION AND INHIBIT BIDIRECTIONAL SIGNALING” (THE BOARD OF REGENTS OF THE UNIVERSITY OF TEXAS SYSTEM, priority 2022, published 2026).

Test [1] deals with DH neurons in the spinal cord. The test can be described thus: dorsal horn neuron activation (Trap2/Ai9) after CFA. It counts as in vivo, mouse. As to conditions: listed as A20. The procedure: FIG. 65 depicts development of a quantitative fluorescent method to assess the activation of DH neurons in the spinal cord following a chronic, […]. The left hind paws of EphB1+/+ wild-type, EphB1+/− heterozygous, and EphB1−/− homozygous mutant mice that also contained the Trap2/CreERT2 driver and the Ai9/tdTomato reporter were injected once with CFA to induce inflammatory pain. Four hours later, mice were then injected IP with 4-hydroxy-tamoxifen (4-OHT, 40 mg/kg in sunflower seed oil) to activate Cre recombinase and permanently label with red fluorescence the neurons that were activated during the short window of time (~8 hr) until the 4-OHT is degraded. Fourteen days later, animals were perfused with 4% paraformaldehyde dissolved in PBS and then […] thick vibratome serial sections of the lumbar spinal cord were obtained, mounted, and viewed under fluorescence microscopy to identify red labeled neurons in the superficial dorsal horn of the spinal cords that were activated between ~4-12 hr after the CFA induction of inflammatory pain. Superficial red neurons were counted on the left (injured) and right (uninjured) side dorsal horns (boxed areas) from 8-12 serial sections along the span of lumbar cord of each animal. […]

The target in test [2] is EphrinB3-EphB2 (Homo sapiens, UniProt P29323). The test can be described thus: Octet, immobilized human EphrinB3 binding to human EphB2. The procedure:
Studies were conducted to confirm that A20 chemicals can effectively target the human Eph/Ephrin proteins. Octet system was used to first characterize the biophysical interactions of the human B class Eph and Ephrin proteins, and then was tested to assess how A20 may disrupt the interactions. Since the human and rodent proteins are highly conserved, and essentially identical, with EphB2 sharing 99.5% identity between human and mouse, with only 5 of ~1,000 amino acids different, any species-specific differences were not anticipated. Therefore, commercially available human EphrinB1-Fc (EB1), EphrinB2-Fc (EB2), and EphrinB3-Fc (EB3) ectodomain proteins were sparsely immobilized onto biosensors and then exposed to 50 nM of soluble human EphB1-His, EphB2-His, and EphB4-His ectodomains for 800 sec association and 1,000 sec dissociation steps with a total of nine different interactions analyzed. In the absence of A20 chemical, the immobilized human EphrinB proteins bound to their appropriate human EphB target proteins; with EphrinB1 only bound EphB1 and EphB2, EphrinB2 bound all three EphB1, EphB2, and EphB4, and EphrinB3 only bound EphB1 and EphB2 (FIG. 19A-19B).
Addition of compound also altered dissociation kinetics. […] This is referred to as the “unsurmountable” component of the Eph-Ephrin interaction (FIG. 21C). Additionally, AUC data was graphed for these runs (FIG. 21D). […]

Entries after “also recorded” stand apart in the source; their conditions may differ.

Sequence of EphrinB3-EphB2 (P29323 19-543 limits assumed): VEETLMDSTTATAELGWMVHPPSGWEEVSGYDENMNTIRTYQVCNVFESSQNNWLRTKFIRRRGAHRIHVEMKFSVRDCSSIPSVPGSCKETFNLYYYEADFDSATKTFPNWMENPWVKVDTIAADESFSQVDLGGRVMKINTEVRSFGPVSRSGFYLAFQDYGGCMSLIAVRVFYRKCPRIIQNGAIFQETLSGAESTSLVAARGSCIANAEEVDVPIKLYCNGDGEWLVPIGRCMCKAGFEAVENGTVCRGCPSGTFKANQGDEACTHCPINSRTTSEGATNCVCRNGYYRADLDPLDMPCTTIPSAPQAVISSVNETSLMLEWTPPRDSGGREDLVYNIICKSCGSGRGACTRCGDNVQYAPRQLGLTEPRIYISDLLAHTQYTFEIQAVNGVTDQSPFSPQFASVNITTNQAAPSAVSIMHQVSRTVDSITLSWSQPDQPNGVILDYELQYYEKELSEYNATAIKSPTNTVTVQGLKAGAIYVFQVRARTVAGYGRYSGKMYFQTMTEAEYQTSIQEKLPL

With `Oc1c(Br)cc(CN2CCOCC2)c2cccnc12` [Compound 5, 7-bromo-5-(morpholinomethyl)quinolin-8-ol], in test [1], the “DH neuron activation” value is on record as “significantly fewer labeled neurons in the injured side; also recorded: dramatically reduced DH neuron activation”. Also, the inhibition at 1 µM in test [2] (EB3-EphB2, A20, read-out: reduction of tetramers) is ~45%. For the same molecule, in test [2] (read-out: concentration producing maximum inhibition), the IC (maximum) was found to be 1 µM.
